This note sets out measurements from patent US20240247215A1, “BIOMIMETIC SYSTEM AND METHOD FOR MANUFACTURING SAME” (JSR CORPORATION, priority 2021, published 2024).

One data set has as its target T1, BCRP (Homo sapiens, UniProt Q9UNQ0).
T1 construct: the human cholangiocyte-like cells further express at least one or more transporters selected from the group consisting of MRP2, BSEP, and BCRP; endogenous in cells; host or cells: human cholangiocyte-like cells (bile duct organoid derived) on a permeable insert
T1 sequence (Q9UNQ0 1-655): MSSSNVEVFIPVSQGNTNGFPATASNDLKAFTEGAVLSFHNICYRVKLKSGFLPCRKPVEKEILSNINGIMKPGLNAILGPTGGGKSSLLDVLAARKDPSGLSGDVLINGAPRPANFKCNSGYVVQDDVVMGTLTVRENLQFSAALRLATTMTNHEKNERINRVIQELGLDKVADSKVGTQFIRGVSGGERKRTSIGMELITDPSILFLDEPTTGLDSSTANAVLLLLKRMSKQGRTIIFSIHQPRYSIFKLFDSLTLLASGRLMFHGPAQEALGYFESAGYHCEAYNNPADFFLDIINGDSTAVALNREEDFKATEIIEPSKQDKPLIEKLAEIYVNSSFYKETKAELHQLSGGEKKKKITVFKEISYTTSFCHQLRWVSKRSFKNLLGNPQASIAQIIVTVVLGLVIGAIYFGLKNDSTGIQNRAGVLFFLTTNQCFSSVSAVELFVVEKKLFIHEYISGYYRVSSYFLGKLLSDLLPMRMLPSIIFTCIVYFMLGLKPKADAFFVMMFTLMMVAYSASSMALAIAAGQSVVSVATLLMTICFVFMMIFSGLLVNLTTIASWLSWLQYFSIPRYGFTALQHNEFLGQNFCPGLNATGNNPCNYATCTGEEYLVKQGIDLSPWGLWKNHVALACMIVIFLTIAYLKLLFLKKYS
Kind of data set: Efflux ratio of Hoechst 33342 (BCRP substrate) in biomimetic system. The data set is classed as in vitro ADME. The note with it: Hoechst 33342 as substrate; system as Manufacturing Example 1, 15 culture days; average of four measurements. How it is done: The efflux ratio of Hoechst 33342 (CAS number: 23491-52-3), which is a substrate for BCRP, was measured by using the biomimetic system.
Human cholangiocyte-like cells were manufactured by a method similar to that used in Experimental Example 9. In addition, a biomimetic system was manufactured in the same manner as in Manufacturing Example 1 of Experimental Example 2, except that the number of culture days was set to 15 days. The TEER of the manufactured biomimetic system was measured by the same method as that used in Experimental Example 2, and the value was 284.83 Ω·cm^2.
The transport amounts of Hoechst 33342 were measured in the same manner as in Experimental Example 3, except that Hoechst 33342 was used in place of rhodamine 123 as a substrate. Regarding Hoechst 33342, a solution obtained by dissolving the substance in deionized water to a concentration of 1% by mass was used.
FIG. 12A is a graph showing the results of measuring the transport amount (BtoA) four times, and FIG. 12B is a graph showing the results of measuring the transport amount (AtoB) four times. The axis of abscissa in the graph represents the time (minutes), and the axis of ordinate represents the amount (pmoL) of transported Hoechst 33342. The efflux ratio calculated in the same manner as in Experimental Example 3 from the average value of the results of the four measurements was about 23.0.

Another data set has as its target T2, P-gp (Homo sapiens, UniProt P08183).
T2 construct: the human cholangiocyte-like cells express P-glycoprotein (P-gp); endogenous in cells; host or cells: human cholangiocyte-like cells derived from human bile duct organoids (from human primary hepatocytes), grown as a 2D membrane on a permeable insert
Description: Efflux ratio by P-gp: rhodamine 123 transport (AtoB/BtoA) across human cholangiocyte-like cell-containing membrane. The data set is classed as in vitro ADME. The settings on record: rhodamine 123 10 μM. On the procedure:
FIG. 4A and FIG. 4B are graphs showing the measurement results of the transport amount (AtoB) and the transport amount (BtoA). […] In addition, as shown in FIG. 4A and FIG. 4B, approximation curves were each created based on the graphs of the transport amount (AtoB) and the transport amount (BtoA), and the gradient (permeation rate) was calculated. Subsequently, the efflux ratio (Efflux Ratio (ER)) was calculated based on Formula (2).
Efflux ratio=(Permeation rate of BtoA)/(permeation rate of AtoB) (2)
FIG. 6A to FIG. 6D are graphs showing the measurement results of the transport amount (AtoB) and the transport amount (BtoA). […] Each of FIG. 6A, FIG. 6B, FIG. 6C, and FIG. 6D presents the results of using a culture medium including Matrigel (registered trademark) at a concentration of 0, 0.1, 0.5, or 2 v/v %. In addition, as shown in FIG. 6A to FIG. 6D, approximation curves were each created based on the graphs of the transport amount (AtoB) and the transport amount (BtoA), and the gradient (permeation rate) was calculated. Subsequently, the efflux ratio was calculated based on the above-described Formula (2).
FIG. 7A to FIG. 7C are graphs showing the measurement results of the transport amount (AtoB) and the transport amount (BtoA). Each of FIG. 7A, FIG. 7B, and FIG. 7C presents the results of using a container coated with Matrigel (registered trademark) at a concentration of 2, 5, or 10 v/v %. In addition, as shown in FIG. 7A to FIG. 7C, approximation curves were each created based on the graphs of the transport amount (AtoB) and the transport amount (BtoA), and the gradient (permeation rate) was calculated. Subsequently, the efflux ratio was calculated based on the above-described Formula (2).

T2 sequence (P08183 whole entry): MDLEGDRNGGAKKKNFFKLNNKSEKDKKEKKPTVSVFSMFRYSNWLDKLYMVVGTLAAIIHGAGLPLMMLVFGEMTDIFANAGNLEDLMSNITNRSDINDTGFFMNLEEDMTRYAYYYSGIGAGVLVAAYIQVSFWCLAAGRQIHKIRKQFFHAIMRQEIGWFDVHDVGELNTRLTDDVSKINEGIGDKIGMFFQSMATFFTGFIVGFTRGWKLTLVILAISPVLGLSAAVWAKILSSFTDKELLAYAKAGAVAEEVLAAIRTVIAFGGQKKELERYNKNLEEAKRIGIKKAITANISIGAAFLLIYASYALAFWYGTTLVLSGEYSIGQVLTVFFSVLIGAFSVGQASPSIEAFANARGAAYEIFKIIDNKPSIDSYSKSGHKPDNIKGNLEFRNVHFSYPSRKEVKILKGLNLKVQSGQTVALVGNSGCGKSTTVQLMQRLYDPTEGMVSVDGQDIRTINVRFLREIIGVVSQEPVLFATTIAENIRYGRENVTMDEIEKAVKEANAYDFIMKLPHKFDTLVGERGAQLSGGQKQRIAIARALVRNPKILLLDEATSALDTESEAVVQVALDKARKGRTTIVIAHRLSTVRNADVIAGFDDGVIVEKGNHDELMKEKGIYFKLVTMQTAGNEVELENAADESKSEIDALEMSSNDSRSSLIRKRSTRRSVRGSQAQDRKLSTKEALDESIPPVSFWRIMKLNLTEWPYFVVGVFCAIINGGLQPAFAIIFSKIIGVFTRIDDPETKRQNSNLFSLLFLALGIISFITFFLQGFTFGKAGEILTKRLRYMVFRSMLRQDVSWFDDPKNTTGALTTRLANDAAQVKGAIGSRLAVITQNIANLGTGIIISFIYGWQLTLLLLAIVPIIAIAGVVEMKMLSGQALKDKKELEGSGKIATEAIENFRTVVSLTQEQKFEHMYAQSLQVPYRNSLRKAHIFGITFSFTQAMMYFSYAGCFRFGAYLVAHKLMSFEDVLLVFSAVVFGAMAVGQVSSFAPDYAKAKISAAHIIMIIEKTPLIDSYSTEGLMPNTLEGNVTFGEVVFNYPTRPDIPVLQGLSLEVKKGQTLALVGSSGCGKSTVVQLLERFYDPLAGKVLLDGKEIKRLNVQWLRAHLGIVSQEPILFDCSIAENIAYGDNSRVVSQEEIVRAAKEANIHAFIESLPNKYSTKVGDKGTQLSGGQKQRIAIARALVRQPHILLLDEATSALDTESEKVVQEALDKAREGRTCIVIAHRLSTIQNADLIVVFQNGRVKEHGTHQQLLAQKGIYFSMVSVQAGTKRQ

Regarding `CCOc1ccc(-c2nc3ccc(-c4nc5ccc(N6CCN(C)CC6)cc5[nH]4)cc3[nH]2)cc1` [Hoechst 33342], the Efflux ratio result at BCRP is reported as “about 23.0”.

As for rhodamine 123, the Efflux ratio on P-gp (Production Example 3, Matrigel 0 v/v % in culture medium, Day 17) was determined as 1.7; on P-gp (Production Example 4, Matrigel 0.1 v/v % in culture medium, Day 17) it was 1.7; on P-gp (Production Example 5, Matrigel 0.5 v/v % in culture medium, Day 17) it was 2.2; at P-gp (Production Example 7, Matrigel 2 v/v % in culture medium, Day 17) it was 1.3; at P-gp (Production Example 9, insert coated with 2 v/v % Matrigel, 14 culture days) it was 4.93; at P-gp (Production Example 10, insert coated with 5 v/v % Matrigel, 14 culture days), 4.70. Further, the Efflux ratio on P-gp (Production Example 11, insert coated with 10 v/v % Matrigel, 14 culture days) is recorded as 3.89; at P-gp (biomimetic system of Manufacturing Example 2, Day 17 from start of culture) it was 7.3; at P-gp (biomimetic system of Manufacturing Example 2, Day 23 from start of culture) it was 11.6.
